# Laboratory results taken from patent US4051237A, “Glycopeptide antibiotics Bu-2231 A and B and process for producing same” (priority 1975, dated 1977).
# Experiments:
# [1] = tested on: C. krusei IAM 4489; test: MIC by two-fold agar dilution; format: cell-based; conditions: Ck-1 C. krusei IAM 4489; sabouraud agar; unit assumed
# [2] = tested on: T. mentagrophytes D-155; test: MIC by two-fold agar dilution; format: cell-based; conditions: Tm-1 T. mentagrophytes D-155; sabouraud agar; unit assumed
# [3] = tested on: S. aureus 209P, R4; test: MIC by two-fold agar dilution; format: cell-based; conditions: Mueller-Hinton agar, unit assumed
# Method: The minimum inhibitory concentrations (MIC) of Bu-2231 A and B were determined against a wide variety of bacteria and fungi by the two-fold agar dilution method. Mueller-Hinton agar medium was used for the determination of bacterial MIC's (gram-positive and gram-negative), Medium #1001 [Glycerol (3%). Na-glutamate (0.3%), peptone (0.2%), Na2 HPO4 (0.31%), KH2 PO4 (0.1%), ammonium citrate (0.005%), MgSO4.7H2 O (0.001%), agar (1.5%)] for acid-fast bacteria and sabouraud agar for fungi. The results are shown in Tables 9 and 10 comparatively with bleomycin and phleomycin. The antibacterial and antifungal activities of Bu-2231 A and B are much higher than those of the reference antibiotics.
# [4] = tested on: E. coli A20683; test: MIC by two-fold agar dilution; format: cell-based; conditions: Mueller-Hinton agar, unit assumed
# [5] = tested on: E. coli NIHJ; test: MIC by two-fold agar dilution; format: cell-based; conditions: Mueller-Hinton agar, unit assumed
# [6] = tested on: C. albicans IAM 4888; test: MIC by two-fold agar dilution; format: cell-based; conditions: Ca-1 C. albicans IAM 4888; sabouraud agar; unit assumed
# [7] = tested on: Mycobacterium 607, D46; test: MIC by two-fold agar dilution; format: cell-based; conditions: Medium #1001, unit assumed
# [8] = tested on: P. aeruginosa A20741; test: MIC by two-fold agar dilution; format: cell-based; conditions: Mueller-Hinton agar, unit assumed
# [9] = tested on: S. aureus BX-1633,A9606; test: MIC by two-fold agar dilution; format: cell-based; conditions: Mueller-Hinton agar, unit assumed
# [10] = tested on: P. stuartii A20894; test: MIC by two-fold agar dilution; format: cell-based; conditions: Mueller-Hinton agar, unit assumed
# [11] = tested on: Mycobacterium 607, D87; test: MIC by two-fold agar dilution; format: cell-based; conditions: Medium #1001, unit assumed
# [12] = tested on: E. coli K-12 A9632; test: MIC by two-fold agar dilution; format: cell-based; conditions: Mueller-Hinton agar, unit assumed
# [13] = tested on: Mycobacterium phlei, D88; test: MIC by two-fold agar dilution; format: cell-based; conditions: Medium #1001, unit assumed
# [14] = tested on: T. asteroides; test: MIC by two-fold agar dilution; format: cell-based; conditions: Ta-1 T. asteroides; sabouraud agar; unit assumed
# [15] = tested on: E. coli Juhl A15119; test: MIC by two-fold agar dilution; format: cell-based; conditions: Mueller-Hinton agar, unit assumed
# [16] = tested on: S. marcescens A21235; test: MIC by two-fold agar dilution; format: cell-based; conditions: Mueller-Hinton agar, unit assumed
# [17] = tested on: C. krusei #96 A15052; test: MIC by two-fold agar dilution; format: cell-based; conditions: Ck-2 C. krusei #96 A15052; sabouraud agar; unit assumed
# [18] = tested on: E. coli A20665; test: MIC by two-fold agar dilution; format: cell-based; conditions: Mueller-Hinton agar, unit assumed
# [19] = tested on: F. moniliforme NRRL A2284; test: MIC by two-fold agar dilution; format: cell-based; conditions: Fm-1 F. moniliforme NRRL A2284; sabouraud agar; unit assumed
# [20] = tested on: S. lutea PCI-1001; test: MIC by two-fold agar dilution; format: cell-based; conditions: Mueller-Hinton agar, unit assumed
# [21] = tested on: B. sphaericus #122; test: MIC by two-fold agar dilution; format: cell-based; conditions: Mueller-Hinton agar, unit assumed
# [22] = tested on: E. coli NIHJ; test: In vivo activity in experimental mice infection; conditions: Table 12
# Method: The in vivo activity of Bu-2231 complex was evaluated in experimental mice infections against S. aureus Smith and E. coli NIHJ. Bleomycin was tested comparatively as a reference antibiotic.
# The in vivo activty of the individual components of Bu-2231 in each of the copper-free and copper complex forms was also determined in E. coli infection.
# [23] = mice, single subcutaneous injection, 16 days
# Method: The acute toxicity of copper-free Bu-2231 A and B was determined in mice by a single subcutaneous injection. Groups of 3 mice were used for each dose level and the body weight was recorded for 16 days.
Compound,MIC [1] [µg/mL],MIC [2] [µg/mL],MIC [3] [µg/mL],MIC [4] [µg/mL],MIC [5] [µg/mL],MIC [6] [µg/mL],MIC [7] [µg/mL],MIC [8] [µg/mL],MIC [9] [µg/mL],MIC [10] [µg/mL],MIC [11] [µg/mL],MIC [12] [µg/mL],MIC [13] [µg/mL],MIC [14] [µg/mL],MIC [15] [µg/mL],MIC [16] [µg/mL],MIC [17] [µg/mL],MIC [18] [µg/mL],MIC [19] [µg/mL],MIC [20] [µg/mL],other results
Phleomycin [reference compound],0.8,12.5,0.4,> 100,0.8,3.1,0.2,6.3,0.4,0.8,0.4,1.6,0.1,6.3,1.6,0.8,0.8,0.4,12.5,0.4,MIC [21]: 0.4 µg/mL
Cc1c(N)nc([C@H](CC(N)=O)NC[C@@H](N)C(N)=O)nc1C(=O)N[C@H](C(=O)N[C@H](C)[C@@H](O)CC(=O)N[C@@H](C(=O)NC(O[C@@H]1O[C@@H](C)[C@@H](N)[C@@H](O)[C@H]1O)C(O)c1nc(-c2nc(C(=O)NCCCNCCCCN)cs2)cs1)[C@@H](C)O)C(O[C@@H]1O[C@@H](CO)[C@H](O)[C@@H](O)[C@@H]1O[C@H]1O[C@H](CO)[C@@H](O)[C@@H](OC(N)=O)[C@@H]1O)c1cnc[nH]1 (stereo partly shown) [Bu-2231 B Cu-free],0.4,6.3,0.8,12.5,0.2,0.8,0.1,0.2,0.8,0.4,0.1,0.1,0.05,0.8,0.2,1.6,0.4,0.05,0.8,0.4,"PD50 ([22]; E. coli NIHJ infection, mice, sc): 0.065 mg/kg; In vivo activity vs. E. coli NIHJ infection (x/5 mice) ([22]; dose (sc) 0.008): 0/5; In vivo activity vs. E. coli NIHJ infection (x/5 mice) ([22]; dose (sc) 0.03): 1/5; In vivo activity vs. E. coli NIHJ infection (x/5 mice) ([22]; dose (sc) 0.13): 4/5; In vivo activity vs. E. coli NIHJ infection (x/5 mice) ([22]; dose (sc) 0.5): 5/5; In vivo activity vs. E. coli NIHJ infection (x/5 mice) ([22]; dose (sc) 2): 5/5; LD50 [23]: > 50 mg/kg; MIC [21]: 0.2 µg/mL"
